This note sets out measurements from ChEMBL document CHEMBL4033766, “Discovery of the Antitumor Effects of a Porphyrazine Diol (Pz 285) in MDA-MB-231 Breast Tumor Xenograft Models in Mice” (ACS Med Chem Lett, 2017).

Assay [1] has as its system MDA-MB-231. In words: Antiproliferative activity against human MDA-MB-231 cells at 25 uM after 48 hrs by MTS assay relative to control. It counts as functional.
Assay [2] in a line: Antiproliferative activity against human MDA-MB-231-LM24 cells after 48 hrs by MTS assay. It counts as functional, cell-based. The conditions noted are these: MDA-MB-231-LM24, 48 h. For orientation: Formazan colour is commonly taken as a measure of viable cells.
A short description of assay [3]: Antitumor activity against Her2-positive human MDA-MB-231-LM24 cells xenografted in SCID-beige mouse harboring Td-tomato and Luc2 assessed as survival days at 2.5 mg/kg, iv administered every 7 days for 28 days (reference value: 9.5 days). It counts as functional.
Assay [4] in a line: Antitumor activity against Her2-positive human MDA-MB-231-LM24 cells xenografted in SCID-beige mouse harboring Td-tomato and Luc2 assessed as tumor growth inhibition at 2.5 mg/kg, iv administered every 7 days for 28 days relative to control. As to conditions: MDA-MB-231-LM24, iv, read-out: TGI. It counts as functional.
The subject of assay [5] is MDA-MB-231-LM24. Kind of assay: Antimetastatic activity against Her2-positive human MDA-MB-231-LM24 cells xenografted in SCID-beige mouse harboring Luc2 assessed as reduction in tumor burden in lung at 2.5 mg/kg, iv administered every 7 days for 2 weeks by bioluminescence analysis. It counts as functional, organism-based.
The nature of assay [6]: Antitumor activity against Her2-positive human MDA-MB-231-LM24 cells xenografted in SCID-beige mouse harboring Td-tomato and Luc2 assessed as survival days at 1.25 mg/kg, iv administered every 7 days for 28 days (reference value: 9.5 days). It counts as functional.

A word on the IC50: it is the concentration needed to halve the response being measured.

The structures appear in SMILES notation. Calls of active or inactive are those of the source. The rule behind the calls is not given here.

On to `CO[C@]1(C)OC2=C(O[C@@]1(C)OC)c1nc2nc2[nH]c(nc3nc(nc4[nH]c(n1)c1c4O[C@@](C)(OC)[C@](C)(OC)O1)-c1c(OCCO)ccc(OCCO)c1-3)c1c2O[C@@](C)(OC)[C@](C)(OC)O1`, for which the Activity in assay [1] was found to be 40%. Also, the IC50 in assay [2] is 15 µM. Besides, in assay [3], the Survival was determined as 22.5 days. The inhibition in vivo at 2.5 mg/kg in assay [4] was above 65%. Besides, the outcome in assay [5] was Active.

`COc1cccc2c1C(=O)c1c(O)c3c(c(O)c1C2=O)C[C@@](O)(C(=O)CO)C[C@@H]3O[C@H]1C[C@H](N)[C@H](O)[C@H](C)O1` [DOXORUBICIN]: the Survival in assay [3] came out at 14 days; in assay [6], 20 days.

Regarding `CO[C@]1(C)OC2=C(O[C@@]1(C)OC)c1nc2nc2[nH]c(nc3nc(nc4[nH]c(n1)c1c4O[C@@](C)(OC)[C@](C)(OC)O1)C1=C3O[C@@](C)(OC)[C@](C)(OC)O1)c1c2O[C@@](C)(OC)[C@](C)(OC)O1`, the result in assay [1] was inactive.
